Broadly, the IC50 is the concentration that inhibits the measured activity by half. Lower therefore signals inhibition by little substance. Broadly, the inhibition is the drop in the measured response relative to a control, in per cent.

The results in this text go back to patent US9718817B2, “Aryl and heteroaryl ether compounds as ROR gamma modulators” (Glenmark Pharmaceuticals S.A., priority 2014, dated 2017).

The target in the test is T1, GST-tagged ROR gamma ligand binding domain (LBD) (Homo sapiens, UniProt P51449).
T1 construct: purchased Invitrogen
T1 sequence (P51449 269-508 limits assumed): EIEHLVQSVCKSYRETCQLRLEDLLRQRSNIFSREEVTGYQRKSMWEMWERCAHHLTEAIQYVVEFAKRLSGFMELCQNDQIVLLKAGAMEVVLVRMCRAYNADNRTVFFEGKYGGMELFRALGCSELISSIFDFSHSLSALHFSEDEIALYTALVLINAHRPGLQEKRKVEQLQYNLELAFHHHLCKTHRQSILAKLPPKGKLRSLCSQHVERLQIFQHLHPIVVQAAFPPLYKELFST
Description: TR-FRET assay for ROR gamma (LanthaScreen co-activator peptide recruitment). The test is classed as biochemical. To be noted: for IC50: class symbols, from dose response curve; for inhibition at 1 µM: compound 1 μM; for inhibition at 1 µM / inhibition at 10 µM: TR-FRET ratio 520/495, percent of control; for inhibition at 10 µM: compound 10 μM. The essentials:
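Antagonist mode: 10 nM GST-RORγ LBD pre-incubated with compound 1 h at 22 °C in 25 mM HEPES pH 7.4, 100 mM NaCl, 5 mM DTT, 0.01% BSA, 4% DMSO final. Then 300 nM fluorescein-D22 co-activator peptide plus 10 nM Tb-anti-GST added, 1 h at room temperature. IC50 by nonlinear regression of the 520/495 TR-FRET ratio as percent of no-compound control.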

For `CCn1c(C(C)(C)Oc2ccc(NC(=O)Cc3ccc(S(=O)(=O)CC)cc3)cc2F)nc2cc(F)ccc21` [Example 111, 2-(4-Ethanesulfonyl-phenyl)-N-{4-[1-(1-ethyl-5-fluoro-1H-benzoimidazol-2-yl)-1-methyl-ethoxy]-3-fluoro-phenyl}-acetamide], the IC50 was under 50 nM, the inhibition at 1 µM is 88% and the inhibition at 10 µM was determined as 86.8%.
For `CCS(=O)(=O)c1ccc(CC(=O)Nc2ccc3c(c2)nc(C(C)(C)Oc2ccc(F)cc2F)n3CCN(C)C)cc1` [Example 113, N-[2-[1-(2,4-Difluoro-phenoxy)-1-methyl-ethyl]-1-(2-dimethylamino-ethyl)-1H-benzoimidazol-5-yl]-2-(4-ethanesulfonyl-phenyl)-acetamide], the inhibition at 1 µM stood at 15.6% and the inhibition at 10 µM was 52.4%.
Regarding `CCS(=O)(=O)c1ccc(CC(=O)Nc2ccc3c(c2)nc(C(C)(C)Oc2ccc(F)cc2F)n3CC2CC2)cc1` [Example 114, N-{1-Cyclopropylmethyl-2-[1-(2,4-difluoro-phenoxy)-1-methyl-ethyl]-1H-benzoimidazol-5-yl}-2-(4-ethanesulfonyl-phenyl)-acetamide], the IC50 was under 50 nM, the inhibition at 1 µM stood at 78.9% and the inhibition at 10 µM came to 82.6%.
The like results for `CCCn1c(C(C)(C)Oc2ccc(F)cc2F)nc2cc(NC(=O)Cc3ccc(S(=O)(=O)CC)cc3)ccc21` [Example 115, N-{2-[1-(2,4-Difluoro-phenoxy)-1-methyl-ethyl]-1-propyl-1H-benzoimidazol-5-yl}-2-(4-ethanesulfonyl-phenyl)-acetamide] were, in that order, under 50 nM, 82.4% and 88.3%.
For `CCS(=O)(=O)c1ccc(CC(=O)Nc2ccc3c(c2)nc(C(C)(C)Oc2ccc(F)cc2F)n3CC(C)C)cc1` [Example 116, N-{2-[1-(2,4-Difluoro-phenoxy)-1-methyl-ethyl]-1-isobutyl-1H-benzoimidazol-5-yl}-2-(4-ethanesulfonyl-phenyl)-acetamide], in that order: over 100 nM, 79.1% and 84.5%.
As to `CCS(=O)(=O)c1ccc(CC(=O)Nc2ccc3c(c2)nc(C(C)(C)Oc2ccc(F)cc2F)n3C(C)C)cc1` [Example 117, N-{2-[1-(2,4-Difluoro-phenoxy)-1-methyl-ethyl]-1-isopropyl-1H-benzoimidazol-5-yl}-2-(4-ethanesulfonyl-phenyl)-acetamide], the IC50 was over 100 nM, the inhibition at 1 µM stood at 82.7% and the inhibition at 10 µM was 86.7%.
Turning to `CCn1c(C(F)(F)Oc2ccc(F)cc2F)nc2cc(NC(=O)Cc3ccc(S(=O)(=O)CC)cc3)ccc21` [Example 118, N-{2-[(2,4-Difluoro-phenoxy)-difluoromethyl]-1-ethyl-1H-benzoimidazol-5-yl}-2-(4-ethanesulfonyl-phenyl)-acetamide], the inhibition at 1 µM is 5.43% and the inhibition at 10 µM is 9.14%.
On to `CCS(=O)(=O)c1ccc(CC(=O)Nc2ccc(OC3(c4ccc(Cl)c(F)c4)CCC3)c(F)c2)cc1` [Example 119, N-{4-[1-(4-Chloro-3-fluorophenyl)-cyclobutoxy]-3-fluoro-phenyl}-2-(4-ethanesulfonyl-phenyl)-acetamide], for which the IC50 was under 50 nM, the inhibition at 1 µM was determined as 84.9% and the inhibition at 10 µM was determined as 84.5%.
As to `CCS(=O)(=O)c1ccc(CC(=O)Nc2ccc(OC3(c4ccc(Cl)c(F)c4)CCCC3)cc2)cc1` [Example 120, N-{4-[1-(4-Chloro-3-fluorophenyl)-cyclopentyloxy]-phenyl}-2-(4-ethanesulfonyl-phenyl)-acetamide], the IC50 is under 50 nM, the inhibition at 1 µM stood at 84.8% and the inhibition at 10 µM is 89.6%.
The like results for `CCS(=O)(=O)c1ccc(CC(=O)Nc2ccc(OC3(c4ccc(Cl)c(F)c4)CCCC3)c(F)c2)cc1` [Example 121, N-{4-[1-(4-Chloro-3-fluorophenyl)-cyclopentyloxy]-3-fluorophenyl}-2-(4-ethanesulfonyl-phenyl)-acetamide] were, in that order, under 50 nM, 86.8% and 90.2%.
With `CCS(=O)(=O)c1ccc(CC(=O)Nc2ccc(OC3(c4ccc(Cl)c(F)c4)CCCCC3)c(F)c2)cc1` [Example 122, N-{4-[1-(4-Chloro-3-fluorophenyl)-cyclohexyloxy]-3-fluorophenyl}-2-(4-ethanesulfonyl-phenyl)-acetamide], the IC50 is under 50 nM, the inhibition at 1 µM worked out at 77.3% and the inhibition at 10 µM turned out to be 81.2%.
For `CCS(=O)(=O)c1ccc(CC(=O)Nc2ccc(OC3(c4ccc(Cl)cc4Cl)CCCC3)cc2)cc1` [Example 123, N-{4-[1-(2,4-Dichlorophenyl)-cyclopentyloxy]-phenyl}-2-(4-ethanesulfonyl-phenyl)-acetamide], in that order: under 50 nM, 82% and 87.2%.
For `CCS(=O)(=O)c1ccc(CC(=O)Nc2ccc(OC3(c4ccc(Cl)c(F)c4)CCCCC3)cc2)cc1` [Example 124, N-{4-[1-(4-Chloro-3-fluorophenyl)-cyclohexyloxy]-phenyl}-2-(4-ethanesulfonyl-phenyl)-acetamide], in that order: under 50 nM, 82.2% and 84.8%.
The like results for `CCS(=O)(=O)c1ccc(CC(=O)Nc2ccc3c(c2)nc(C(C)(C)Oc2ccc(F)cc2F)n3C2CC2)cc1` [Example 125, N-{1-Cyclopropyl-2-[1-(2,4-difluorophenoxy)-1-methylethyl]-1H-benzoimidazol-5-yl}-2-(4-ethanesulfonyl-phenyl)-acetamide] were, in that order, under 50 nM, 89.2% and 90.4%.
For the compound `CCn1c(C(C)(C)Oc2cc(F)ccc2F)nc2cc(NC(=O)Cc3ccc(S(=O)(=O)CC)cc3)ccc21` [Example 126, N-{2-[1-(2,5-Difluorophenoxy)-1-methylethyl]-1-ethyl-1H-benzoimidazol-5-yl}-2-(4-ethanesulfonylphenyl)-acetamide], the half-inhibitory concentration (IC50) is under 50 nM, the inhibition at 1 µM came to 85.9% and the inhibition at 10 µM is 89.5%.
`CCN(C(=O)C(C)(C)Oc1ccc(NC(=O)Cc2ccc(S(=O)(=O)CC)cc2)cc1)c1ccc(Cl)cc1` [Example 127, N-(4-Chlorophenyl)-2-{4-[2-(4-ethanesulfonylphenyl)acetylamino]-phenoxy}-N-ethyl-2-methylpropionamide]: the inhibition at 1 µM is 68% and the inhibition at 10 µM was found to be 75.8%.
For `CCS(=O)(=O)c1ccc(CC(=O)Nc2ccc(OC(C)(C)C(=O)N(C)c3ccc(Cl)cc3)cc2)cc1` [Example 128, N-(4-Chlorophenyl)-2-{4-[2-(4-ethanesulfonylphenyl)acetylamino]-phenoxy}-2-N-dimethylpropionamide], in that order: 64.2% and 79.8%.
On to `CCN(C(=O)C(C)(C)Oc1ccc(NC(=O)Cc2ccc(S(=O)(=O)CC)cc2)cc1)c1ccc(Cl)cc1Cl` [Example 129, N-(2,4-Dichlorophenyl)-N-ethyl-2-(4-(2-(4-(ethylsulfonyl)phenyl)acetamido)phenoxy)-2-methylpropanamide], for which the inhibition at 1 µM was 2.49% and the inhibition at 10 µM is 8.35%.
